The text below walks through data of patent publication US10463664B2, “Inhibitors of HSV nucleotidyl transferases and uses therefor” (Saint Louis University, priority 2013, dated 2019).

Data set [1] has as its system HSV-1. The data set can be described thus: Anti-HSV-1 replication assay in Vero cells, titer by plaque assay. Type of data set: cell-based, herpes simplex virus 1. The note with it: for Anti-HSV-1 Log10 suppression 5 μM / Anti-HSV-1 Log10 suppression 50 μM: moi 0.1, 24 h, relative to DMSO. In outline: (§1)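 Well lysates titered by plaque assay on Vero cells versus DMSO controls; EC50 by non-linear fit from serial dilutions starting at 50 μM.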

The subject of data set [2] is HSV-2. The data set can be described thus: Anti-HSV-2 replication assay in Vero cells, titer by plaque assay. The data set is classed as cell-based, herpes simplex virus 2. The note with it: for Anti-HSV-2 Log10 suppression 5 μM / Anti-HSV-2 Log10 suppression 50 μM: moi 0.1, 24 h, relative to DMSO. In outline: as §1
Data set [3] concerns the target T1, HBV RNaseH (Hepatitis B virus genotype A2 subtype adw2, UniProt P03159).
T1 construct: One of the inventors recently produced active recombinant HBV RNase H; hexahistidine; made in house; host or cells: E. coli
The data set can be described thus: Biochemical inhibition of HBV RNaseH (oligonucleotide-directed RNA cleavage assay). As to conditions: compounds at 60, 20 or 10 μM. In a few lines:
(§2)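 A DNA oligonucleotide was annealed to internally ^32P-labeled RNA, and the heteroduplex was incubated with enzyme alongside compounds at 60, 20 or 10 μM. Cleavage products were resolved by electrophoresis and detected by autoradiography, then quantified against DMSO vehicle reactions.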

Data set [4] concerns Vero cells. The data set can be described thus: Qualitative (visual) cytotoxicity assessment in primary screening. Type of data set: cell-based. As to conditions: visual, 50 μM. How it is done:
Compound Cytotoxicity. Compound cytotoxicity was measured both subjectively and quantitatively. Subjective assessments were done by visually inspecting the infected cells at the end of the 24 hours infection window through a phase-contrast microscope.

Data set [5] has as its system Vero cells. The data set can be described thus: MTT mitochondrial toxicity assay in Vero cells. The data set is classed as cell-based. As to conditions: 24 h; read-out: Vero cell toxicity MTT CC50.
In data set [6] the test system is Vero cells. The data set can be described thus: CytoTox-Glo cellular lysis assay in Vero cells. As to conditions: 24 h; read-out: Vero cell toxicity CTG CC50. The data set is classed as cell-based. How it is done: Quantitative toxicity measurements were conducted for all compounds that suppressed HSV replication by approximately 2 login or more at 5 μM plus a number of compounds with lesser inhibitory activity for comparison. Toxicity was assessed by measuring release of intracellular proteases into the culture medium due to cellular lysis. […] Consistent with the subjective assessments of toxicity, all compounds selected for quantitative toxicity assessment had CC50 values ≥50 μM by both the MTT and cellular lysis assays (Table 1).

Data set [7] addresses T2, human RNaseH1 (Homo sapiens, UniProt O60930).
T2 construct: hexahistidine; made in house; host or cells: E. coli
T2 sequence (O60930 1-286): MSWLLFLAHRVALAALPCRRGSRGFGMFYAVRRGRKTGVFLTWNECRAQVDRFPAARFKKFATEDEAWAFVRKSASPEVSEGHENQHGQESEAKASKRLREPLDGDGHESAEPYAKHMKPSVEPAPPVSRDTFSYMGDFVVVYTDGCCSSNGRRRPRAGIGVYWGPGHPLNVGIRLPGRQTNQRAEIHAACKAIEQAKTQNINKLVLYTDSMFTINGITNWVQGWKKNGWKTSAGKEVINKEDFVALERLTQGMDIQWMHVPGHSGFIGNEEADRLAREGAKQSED
The data set can be described thus: Biochemical inhibition of human RNaseH1 (oligonucleotide-directed RNA cleavage assay). As to conditions: compounds at 60, 20 or 10 μM. In a few lines: as §2

For data set [8], the system named is HSV-1. The data set can be described thus: HSV-1 replication inhibition in primary human foreskin fibroblasts. The data set is classed as cell-based, herpes simplex virus 1. The note with it: HFF cells, relative to DMSO-treated control. How it is done:
(§3) Anti-HSV-1 and -HSV-2 Replication Assay. Compounds to be screened were diluted in PBS supplemented to contain 2% newborn calf serum and 1% glutamine, and added in 100 μL, volume to confluent cell monolayers in 24-well cluster plates. Immediately thereafter HSV-1 and HSV-2, diluted in the supplemented PBS medium, were added to the wells in 50 μl volume such that the final concentration of compound was 50 μM and 5 μM and the multiplicity of infection was 0.1. The plates were incubated at 37° C. for 1 hour and then virus-containing inoculum was removed and the wells were washed once in PBS. Compounds, diluted to 50 μM and 5 μM in DMEM supplemented to contain 2% newborn calf serum and 1% each penicillin/streptomycin, were added at 0.5 mL/well. Plates were incubated at 37° C. an additional 23 hr, and then the plates were visually inspected through a phase contrast microscope for cytopathic effect, and for toxic effect. […] The entire contents of each well were collected by scraping. Samples were frozen at −80° C., and then subsequently thawed, sonicated, and infectious virus titer was determined by standard plaque assay on Vero cell monolayers. Because the compounds were dissolved at 10 mM in 100% DMSO, equivalent dilutions of DMSO were added to additional wells as a control for effects of the diluent. Each experiment was repeated once. EC50 values were determined as above except that serial dilutions of the compound to be tested were prepared starting at 50 μM. The inhibitory values were calculated by non-linear curve-fitting in GraphPad Prism.
(§4) Inhibition of viral replication was next assessed in human foreskin fibroblasts (HFF) to determine whether NTS inhibitors could block HSV-1 and HSV-2 replication in a physiologically relevant, primary human cell type. […] Viral yields 24 hours post-infection were measured by plaque assay.

Data set [9] has as its system HSV-2. The data set can be described thus: HSV-2 replication inhibition in primary human foreskin fibroblasts. The data set is classed as cell-based, herpes simplex virus 2. As to conditions: HFF cells, relative to DMSO-treated control. How it is done: as §3, §4
Data set [10] can be described thus: in vitro. As to conditions: human. How it is done:
Toxicity Assays. Qualitative assessments of cytotoxicity were done visually by inspecting the cells in the primary screening assays. For the quantitative assays, cells were plated in 96-well plates at 1.0×10^4 per well. The next day the compounds were added at 0.78 to 100 μM in a final concentration of 1% (v/v) DMSO, and the cells were incubated for 24 hours under conditions identical to those employed for the viral replication inhibition assays. Mitochondrial toxicity was measured by incubating the cells with 0.25 mg/mL thiazolyl blue tetrazolium bromide (MTT, SigmaAldrich Chemical Co.), the cultures were incubated for 60 min, metabolites were solubilized in acidic isopropanol, and absorbance was read at 570 nm. Cellular lysis was measured by detecting release of intracellular proteases with the CytoTox-Glo assay (Promega) according to the manufacturer's instructions. Percent viability was determined for each compound concentration from the maximal absorbance or luminosity data, and then CC50 values were calculated by non-linear curve fitting using GraphPad Prism.
as §4

Data set [11] deals with HCMV strain AD169. The data set can be described thus: Anti-HCMV CPE inhibition assay (crystal violet) in HFFs. The data set is classed as cell-based, human cytomegalovirus. The note with it: Human betaherpesvirus 5, AD169, 336 h, 14 days, read-out: EC50 against HCMV, CPE inhibition assay. How it is done:
(§5) Anti-HCMV CPE inhibition and cytotoxicity assays. HFFs were infected with HCMV strain AD169 in the presence of serial dilutions of the compounds from 0.0192 to 60 μM. Fourteen days later the monolayers were stained with crystal violet, and retained cell density was quantified using a multiplate autoreader (BioTek). Cytotoxicity was measured the same way, except that the cells were uninfected and neutral red internalization by viable cells was measured.
(§6) Antiviral efficacy against HCMV. The ability of select HSV inhibitors to inhibit replication of another major human herpesvirus pathogen, human cytomegalovirus (HCMV) (65) was tested. This was based on the inhibitors strong suppression of HSV-1 and HSV-2 and the prediction that other members of the herpesvirus family would be sensitive to NTS inhibitors due to their shared DNA replication mechanism. Compounds #41, 46, 49, 55, 56, and 59 and the FDA-approved anti-HCMV drug ganciclovir were evaluated with crystal violet CPE and neutral red toxicity assays in HFFs. HFFs were infected with HCMV in the presence of serial dilutions of the compounds that were most inhibitory for HSVs. After 14 days the monolayers were stained and cell density was determined by OD reading. Compound cytotoxicity for uninfected cells was determined in the same manner except that neutral red uptake by viable cells was measured. […] The TI values for the four NTS inhibitors of HCMV ranged from 4 for compound #41 to 38 for #56. Therefore, NTS inhibitors can suppress HCMV replication in addition to inhibiting the HSVs.

Data set [12] can be described thus: Neutral red cytotoxicity assay in uninfected HFFs (14 day, with CPE assay). The data set is classed as cell-based, human. As to conditions: human, uninfected human foreskin fibroblasts (HFFs). How it is done:
as §5, §6

Data set [13] relates to HCMV strain AD169. The data set can be described thus: HCMV plaque reduction assay in HFFs. Type of data set: cell-based, human cytomegalovirus. As to conditions: Human betaherpesvirus 5, AD169, 240 h, 10 days, read-out: EC50 against HCMV, plaque reduction assay. How it is done: (§7) HCMV plaque reduction EC50 and toxicity assays. Low passage primary HFFs were infected with HCMV strain AD169 in the presence of serial dilutions of the compounds from 0.032 to 100 μM. Ten days later the monolayers were stained with 1% neutral red solution in PBS. After rinsing, plaques were counted using a stereomicroscope and the EC50 was interpolated from the data. Cytotoxicity was measured using a plate-based assay in which compounds were added to HFFs at 0.032 to 100 μM. At the end of the incubation period, plates were stained for 1 h with a neutral red solution in PBS. The stain was then removed, the plates rinsed in PBS and dried, and dye internalized by viable cells was determined at OD550. CC50 values were interpolated from the data.
(§8) Compounds #41, 46, 49, 55, 56, and 59 and the FDA-approved, anti-HCMV drug ganciclovir were subsequently evaluated with plaque reduction and toxicity assays in HFFs. HFFs were infected with HCMV in the presence of serial dilutions of the compounds. After 10 days the cultures were stained with neutral red and plaques were counted. Compound cytotoxicity for uninfected cells was determined in the same manner except that neutral red uptake by viable cells was measured by optical density. […] The TI values for the five NTS inhibitors of HCMV ranged from 5 for compound #46 to 17 for #55 and 59. Therefore, NTS inhibitors can suppress HCMV replication in addition to inhibiting the HSVs.

A short description of data set [14]: Neutral red cytotoxicity assay in HFFs (10 day, with plaque reduction assay). Type of data set: cell-based, human. The note with it: human, uninfected primary human foreskin fibroblasts (HFFs), 10 day assay. How it is done:
as §7, §8

T1 sequence (P03159 693-845): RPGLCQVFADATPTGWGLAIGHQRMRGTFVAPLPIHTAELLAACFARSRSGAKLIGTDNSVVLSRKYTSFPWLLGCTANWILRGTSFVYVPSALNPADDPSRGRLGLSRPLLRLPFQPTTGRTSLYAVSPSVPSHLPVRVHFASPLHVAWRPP

Take `O=C1Cc2ccccc2C(=O)N1O` [Compound 1]: in data set [1], the “Anti-HSV-1 Log10 suppression 5 μM” value was found to be 0.28 log10 and the “Anti-HSV-1 Log10 suppression 50 μM” value turned out to be 2.66 log10. For the same molecule, in data set [2], the “Anti-HSV-2 Log10 suppression 5 μM” value is recorded as −0.11 log10 and the “Anti-HSV-2 Log10 suppression 50 μM” value is 3.12 log10. Besides, the “Anti-HBV RNaseH” value in data set [3] is listed as “+++ (inhibition at 10 μM)”. The “Vero cell toxicity Qualitative” value in data set [4] is given as “T?”. In data set [5], the CC50 is greater than 100 µM. Besides, in [6], the CC50 is greater than 100 µM.

Regarding `C[C@H](Cc1ccc(O)c(O)c1)[C@@H](C)Cc1ccc(O)c(O)c1` [Compound 2], in data set [1], the “Anti-HSV-1 Log10 suppression 5 μM” value is −0.19 log10 and the “Anti-HSV-1 Log10 suppression 50 μM” value is reported as 3.21 log10. In data set [2], the “Anti-HSV-2 Log10 suppression 5 μM” value is −0.15 log10 and the “Anti-HSV-2 Log10 suppression 50 μM” value is 4.38 log10. For the same molecule, in data set [3], the “Anti-HBV RNaseH” value was “− (no inhibition at 60 μM)”. In addition, the “Anti-Human RNaseH1” value in [7] is reported as “− (no inhibition at 60 μM)”. Moreover, in data set [5], the CC50 was greater than 100 µM. For the same molecule, in data set [6], the CC50 is greater than 100 µM.

Consider `O=c1cc2oc3cc(O)c(O)cc3c(-c3ccccc3)c-2cc1O` [Compound 31], for which, in data set [1], the “Anti-HSV-1 Log10 suppression 5 μM” value came out at 0.21 log10 and the “Anti-HSV-1 Log10 suppression 50 μM” value was found to be 3.01 log10. Moreover, in data set [2], the “Anti-HSV-2 Log10 suppression 5 μM” value amounted to 0.22 log10 and the “Anti-HSV-2 Log10 suppression 50 μM” value was determined as 3.56 log10. Moreover, the “Anti-HBV RNaseH” value in data set [3] is “+++ (inhibition at 10 μM)”. Also, the “Anti-Human RNaseH1” value in [7] was “+++ (inhibition at 10 μM)”. For the same molecule, the CC50 in data set [5] is greater than 100 µM. Also, the CC50 in data set [6] is greater than 100 µM.

Take `O=c1cccccc1O` [Compound 53, Tropolone]: in data set [1], the “Anti-HSV-1 Log10 suppression 5 μM” value is on record as 0.25 log10 and the “Anti-HSV-1 Log10 suppression 50 μM” value came out at 1.90 log10. In addition, in [1] (primary screening), the “Inhibition of HSV-1 replication (in words)” value is “negligible inhibitors”. In addition, in data set [2], the “Anti-HSV-2 Log10 suppression 5 μM” value was 0.45 log10 and the “Anti-HSV-2 Log10 suppression 50 μM” value is 1.45 log10. Further, the “Inhibition of HSV-2 replication (in words)” value in data set [2] (primary screening) is recorded as “negligible inhibitors”. Besides, the “Anti-HBV RNaseH” value in data set [3] is recorded as “− (no inhibition at 60 μM)”. Further, the “Anti-Human RNaseH1” value in data set [7] is “− (no inhibition at 60 μM)”. For the same molecule, in [8] (5 μM), the “Replication inhibition HSV-1 5 μM” value was −0.03 log10. In addition, the “Replication inhibition HSV-1 50 μM” value in data set [8] (50 μM) stood at 2.13 log10. In [9] (5 μM), the “Replication inhibition HSV-2 5 μM” value worked out at 0.29 log10. In addition, the “Replication inhibition HSV-2 50 μM” value in data set [9] (50 μM) is recorded as 1.22 log10. The molecule also yielded a CC50 at 24 h in data set [10] greater than 100 µM.

With `Nc1nc(O)c2ncn(COC(CO)CO)c2n1` [Ganciclovir, reference compound], the EC50 worked out at 0.33 µM in data set [11] and 3.2 µM in [13]. Moreover, the CC50 at 14 days in data set [12] was greater than 300 µM. The molecule also yielded a CC50 at 10 days in data set [14] greater than 100 µM.

One may read the EC50 as the concentration that produces a half-maximal response.
